Test results published in PubChem BioAssay (NCI).
Values joined by “and” are separate entries in the source; they are usually repeats but may differ in a detail not shown here. Equal entries are not always repeated.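 These data come from cells grown in 96-well plates and exposed to compound for 48 hours at five concentrations. The concentration for 50% growth inhibition is given as GI50. At the TGI there is no net growth.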

How the values were obtained:
Experiment in all cases: NCI tumour cell line growth inhibition, 48 h
SNB-75 CNS = test system: SNB-75 CNS
NCI/ADR-RES ovarian = test system: NCI/ADR-RES ovarian
MCF7 breast = test system: MCF7 breast
SNB-19 CNS = test system: SNB-19 CNS
KM12 colon = test system: KM12 colon
SF-539 CNS = test system: SF-539 CNS
CCRF-CEM leukemia = test system: CCRF-CEM leukemia
SF-268 CNS = test system: SF-268 CNS
MDA-MB-435 = test system: MDA-MB-435
HOP-92 NSCLC = test system: HOP-92 NSCLC

SMILES	TGI (SNB-75 CNS)	TGI (NCI/ADR-RES ovarian)	TGI (MCF7 breast)	TGI (SNB-19 CNS)	TGI (KM12 colon)	TGI (SF-539 CNS)	TGI (CCRF-CEM leukemia)	TGI (SF-268 CNS)	TGI (MDA-MB-435)	TGI (HOP-92 NSCLC)	GI50 (NCI/ADR-RES ovarian)	GI50 (MCF7 breast)	GI50 (SNB-19 CNS)	GI50 (KM12 colon)	GI50 (SF-539 CNS)	GI50 (CCRF-CEM leukemia)	GI50 (SF-268 CNS)	GI50 (MDA-MB-435)	GI50 (HOP-92 NSCLC)	GI50 (SNB-75 CNS)
CCOC(=O)COc1ccc2c(C)cc(=O)oc2c1	> 100 µM	> 100 µM	> 100 µM	> 100 µM	> 100 µM	> 100 µM	> 100 µM	> 100 µM	> 100 µM	> 100 µM	–	–	–	–	–	–	–	–	–	–
CCc1nc(N)nc(N)c1-c1ccc(N2CCNCC2)cc1	> 100 µM	> 100 µM	> 94.3 µM	> 93.3 µM	> 100 µM	> 100 µM	> 86.7 µM	> 100 µM	> 100 µM	> 100 µM	–	–	–	–	–	–	–	–	–	–
C=C1C(=O)OC2/C=C(/C)C(OC(C)=O)C/C=C(\C)C(OC(=O)C3(C)OC3C)C(O)C12 (stereo not drawn)	> 100 µM	> 100 µM	> 100 µM	> 100 µM	> 100 µM	> 100 µM	> 100 µM	> 100 µM	> 100 µM	> 100 µM	–	–	–	–	–	–	–	–	–	–
NS(=O)(=O)OCCCCCCCOS(N)(=O)=O	711 µM	1050 µM	1780 µM	1250 µM	1000 µM	645 µM	1140 µM	1290 µM	921 µM	781 µM	–	–	–	–	–	–	–	–	–	–
COc1cc2c3c(n(C)c(=O)c2cc1OC)-c1ccc(C#N)cc1C3=O	–	> 100 µM	> 100 µM	> 100 µM	> 100 µM	> 100 µM	> 100 µM	> 100 µM	> 100 µM	> 100 µM	> 100 µM	51.1 µM	> 100 µM	> 100 µM	> 100 µM	> 100 µM	> 100 µM	> 100 µM	> 100 µM	–
O=C(CN1C(=O)S/C(=C\C(Cl)=C\c2ccccc2)C1=O)NC1C=CS(=O)(=O)C1 (stereo not drawn)	12.6 µM	> 100 µM	> 100 µM	11.5 µM	4.11 µM	4.76 µM	> 100 µM	8.55 µM	3.41 µM	5.75 µM	1.99 µM	0.467 µM	2.76 µM	1.78 µM	2 µM	0.327 µM	2.44 µM	1.55 µM	1.67 µM	0.387 µM
N=c1c2c(=N)n3c(nc2nc2n1-c1ccccc1Sc1ccccc1-2)sc1cc(Cl)ccc13	65.4 µM	44.6 µM	> 100 µM	68.7 µM	12.6 µM	30.6 µM	> 100 µM	> 100 µM	> 100 µM	4.15 µM	1.84 µM	2.21 µM	2.88 µM	2.34 µM	5.07 µM	2.59 µM	3.42 µM	3.11 µM	0.517 µM	1.83 µM
CN(CCCNC(=O)CCOCCOCCOCCNC(=O)Cc1ccc2ccc3cccc4ccc1c2c34)CCCNc1cc(-c2ccc3ccccc3c2)nc2ccccc12	0.994 µM	10.6 µM	0.771 µM	0.991 µM	1.04 µM	0.99 µM	–	1.14 µM	0.403 µM	2.22 µM	4.22 µM	0.283 µM	0.51 µM	0.47 µM	0.526 µM	–	0.54 µM	0.108 µM	0.38 µM	0.51 µM
O=S(=O)(c1cnccc1N1CCN(CCO)CC1)N1CCCC1	> 100 µM	> 100 µM	> 100 µM	> 100 µM	> 100 µM	> 100 µM	–	> 100 µM	> 100 µM	> 100 µM	–	–	–	–	–	–	–	–	–	–
COc1cc(-c2nn(-c3cccc(NC(=O)c4ccc(Cl)c(C(F)(F)F)c4)c3)cc2-c2ccncc2)ccc1Cl	13.2 µM	15 µM	> 32.5 µM	> 32.5 µM	> 32.5 µM	15 µM	> 32.5 µM	> 32.5 µM	1.79 µM	2.5 µM	1.18 µM	1.82 µM	7.64 µM	1.6 µM	2.63 µM	1.77 µM	3.24 µM	0.658 µM	0.425 µM	1.07 µM
CN(C)C(=S)SCC(=O)Nc1ccccc1	> 100 µM	> 100 µM	> 100 µM	–	> 100 µM	–	> 100 µM	> 100 µM	> 100 µM	> 100 µM	–	–	–	–	–	–	–	–	–	–
COc1cccc(/C=C2\COc3ccc(-c4ccccc4)cc3C2=O)c1	4.8 µM	14.5 µM	9.17 µM	7.21 µM	–	4.12 µM	28.1 µM	11.6 µM	> 100 µM	9.41 µM	3.63 µM	2.05 µM	2.7 µM	–	2.05 µM	2.42 µM	3.52 µM	3.21 µM	2.34 µM	1.99 µM
O=C1/C=C/[C@@H](O)[C@@H]2C[C@@H](O)C[C@H]2/C=C/CCC[C@H](C(F)(F)F)O1	> 100 µM	11.4 µM	0.813 µM	> 100 µM	16.2 µM	> 100 µM	0.916 µM	> 77.8 µM	> 44.5 µM	0.568 µM	0.408 µM	0.0896 µM	6.98 µM	1.54 µM	0.504 µM	0.205 µM	0.403 µM	0.36 µM	0.126 µM	0.0603 µM
COC(=O)CSSCc1ccc([N+](=O)[O-])cc1	55.2 µM	47.1 µM	34.3 µM	77.2 µM	38.9 µM	32.7 µM	88 µM	45.9 µM	31.3 µM	> 100 µM	–	–	–	–	–	–	–	–	–	–
O=c1[nH]cnc2c1nnn2CCCCCCCCCCCCn1nnc2c(=O)[nH]cnc21	> 57.2 µM	> 100 µM	> 100 µM	54.9 µM	> 100 µM	54.6 µM	> 100 µM	79.9 µM	> 100 µM	53 µM	–	–	–	–	–	–	–	–	–	–
CC(=O)[O][Hg][c]1c(C)c(C)cc(C)c1C	2.99 µM	9.14 µM	2.86 µM	3.76 µM	6.26 µM	3.11 µM	13.5 µM	2.25 µM	2.74 µM	0.705 µM	2.96 µM	0.873 µM	1.7 µM	2.22 µM	1.51 µM	0.39 µM	0.825 µM	1.27 µM	0.128 µM	1.48 µM
CC[C@H](C)[C@H](NC(=O)CN(C)C)C(=O)N(C)[C@H](C[C@@H](OC(C)=O)c1nc(C(=O)NC23CC(C(=O)OC)(C2)C3)cs1)C(C)C	> 25 µM	> 25 µM	> 25 µM	> 25 µM	> 25 µM	1.56 µM	> 25 µM	> 25 µM	0.298 µM	> 25 µM	> 21.4 µM	0.11 µM	0.852 µM	0.478 µM	0.307 µM	0.0932 µM	0.831 µM	0.0461 µM	> 25 µM	0.0883 µM
O=C1c2ccccc2C(=O)c2c(OCCOCCO)cccc21	> 100 µM	> 100 µM	> 100 µM	> 100 µM	> 100 µM	> 100 µM	–	> 100 µM	> 100 µM	96.9 µM	–	–	–	–	–	–	–	–	–	–
CC1=C(C(=O)Nc2ccc(Cl)c(C(=O)OC(C)C)c2)SCCO1	> 100 µM	> 91.8 µM	> 90.4 µM	> 77.4 µM	> 100 µM	> 97 µM	65.1 µM	> 89.9 µM	> 100 µM	> 100 µM	–	–	–	–	–	–	–	–	–	–
CC(=O)c1c(C)[nH]c(-c2nc3ccc(N4CCN(C)CC4)cc3[nH]2)c1-c1ccccc1	0.937 µM	> 100 µM	13.5 µM	> 100 µM	32.6 µM	17.5 µM	> 100 µM	39.6 µM	12.9 µM	24.5 µM	2.48 µM	0.266 µM	3.03 µM	1.84 µM	1.47 µM	4.69 µM	5.24 µM	0.505 µM	0.585 µM	0.0416 µM
CCCCCCCCCCCC[n+]1ccc2ccccc2c1	2.78 µM	35.5 µM	2.88 µM	2.22 µM	1.51 µM	3.22 µM	2.09 µM	2.57 µM	1.55 µM	1.79 µM	9.37 µM	0.937 µM	0.995 µM	0.397 µM	1.58 µM	0.317 µM	1.22 µM	0.387 µM	0.3 µM	1.14 µM
CSc1ccc2c(c1)C(N1CCN(C)CC1)Cc1ccccc1S2 (stereo not drawn)	3.15 µM and 3.87 µM	19 µM and 4.58 µM	7.22 µM and 3.58 µM	28.5 µM and 6.13 µM	7.49 µM and 3.55 µM	18.9 µM and 3.61 µM	0.845 µM and 3.84 µM	14.7 µM and 5.55 µM	6.47 µM and 3.46 µM	7.77 µM and 2.62 µM	1.96 µM	1.79 µM	2.36 µM	1.83 µM	1.87 µM	1.7 µM	2.1 µM	1.78 µM	0.393 µM	1.49 µM
COc1ccc(N(C)c2nc(N)nc3sc4c(c23)CCCC4)cc1	13.2 µM	14.4 µM	14.8 µM	16.9 µM	12 µM	–	55.5 µM	14.5 µM	–	6.81 µM	< 0.01 µM	< 0.01 µM	< 0.01 µM	< 0.01 µM	< 0.01 µM	< 0.01 µM	< 0.0159 µM	< 0.01 µM	< 0.0187 µM	< 0.01 µM
Cc1cc(Cl)nc(N(CCCNc2ccnc3cc(Cl)ccc23)Cc2ccco2)n1	11.2 µM	6.87 µM	6.1 µM	14.7 µM	11.5 µM	6.38 µM	8.93 µM	31.1 µM	7.17 µM	4.19 µM	1.76 µM	1.81 µM	3.46 µM	2.79 µM	2.33 µM	2.32 µM	3.83 µM	2.31 µM	0.779 µM	2.13 µM
NC(=S)c1c(N)n(C2OC(CO)C(O)C2O)c2ncnc(N)c12 (stereo not drawn)	4.17 µM	1.27 µM	–	> 100 µM	9.61 µM	1.06 µM	0.773 µM	4.52 µM	1.01 µM	3.43 µM	0.276 µM	0.0579 µM	0.962 µM	0.258 µM	0.241 µM	0.241 µM	0.425 µM	0.259 µM	0.302 µM	0.885 µM
CO[C@H]1C[C@@H]2CC[C@@H](C)[C@@](O)(O2)C(=O)C(=O)N2CCCC[C@H]2C(=O)O[C@H]([C@H](C)C[C@@H]2CC[C@@H](OCCO)[C@H](OC)C2)CC(=O)[C@H](C)C=C(C)[C@@H](O)[C@@H](OC)C(=O)[C@H](C)C[C@H](C)/C=C/C=C/C=C1C	14.1 µM	31.7 µM	14 µM	19.5 µM	21.2 µM	15.3 µM	> 43.1 µM	21.1 µM	22.1 µM	20 µM	3.26 µM	< 0.01 µM	–	1.18 µM	< 0.01 µM	–	0.269 µM	< 0.0332 µM	0.0199 µM	< 0.01 µM
COc1cc2nc3cc([N+](=O)[O-])ccc3c(NCCNCC(C)(C)O)c2cc1OC	2.05 µM	20.5 µM	2.04 µM	2.83 µM	2.97 µM	2.12 µM	5.13 µM	2.54 µM	1.93 µM	2.43 µM	5.68 µM	0.372 µM	0.472 µM	0.698 µM	0.566 µM	0.573 µM	0.491 µM	0.6 µM	0.503 µM	0.608 µM
CN(CC(=O)N(Cc1ccc(C2CCCCC2)cc1)c1ccc(C(=O)O)cc1)S(=O)(=O)c1c(F)c(F)c(F)c(F)c1F	2.96 µM	5.26 µM	3.48 µM	–	9.01 µM	3.26 µM	6.81 µM	3.59 µM	3.19 µM	4.02 µM	2.14 µM	1.65 µM	–	2.94 µM	1.69 µM	2.69 µM	1.85 µM	1.75 µM	2.11 µM	1.61 µM
